In paper PMC11249953, “c-KIT inhibitors reduce pathology and improve behavior in the Tg(SwDI) model of Alzheimer’s disease” (Life Science Alliance, 2024):
“And” between values parts separate entries of the source, which are not always exact repeats. Identical values can stand only once. Like-named read-outs stand apart in the source and are kept apart here.

Legend:
[1] = test system: TgAPP mice; test: Elevated plus maze, TgAPP mice; format: in vivo, mouse; details: 45 mg/kg IP, 6 wk, vs DMSO
Protocol: The elevated plus maze was performed using a standard set up, with two enclosed arms and two open arms. Mice were placed at the intersection of the open and closed arms and allowed to freely explore for 5 min, two times. Time spent in the open and closed arms and number of entries into the open and closed arms were recorded.

[2] = Pharmacokinetic analysis of BK40197 (brain and serum, LC-MS/MS); format: in vivo, C57BL/6 mice; details: for Kp / Tmax / AUC / Cmax: both sexes, C57BL/6, mouse; for Kp: brain/serum, intraperitoneal, read-out: brain to serum ratio
Protocol: The PK profile of BK40197 was investigated after single IP doses of 20 and 45 mg/kg BK40197 to male and female 5–6 mo old C57BL/6 mice compared with DMSO. A solution at 5 ng/ml isotope labelled reference compounds d8-BK40197 was prepared. The solvent used for internal standard (ISTD) dilution is (200 ml/50 ml) acetonitrile/ethyl acetate (ACN/EtOAc). Brain tissue was homogenized in ice water bath and was prepared using weight accurately on analytical balance with 4 decimals. A volume water (MilliQ) was added by adjustable 100–1,000 μl to a concentration at 100 mg brain tissue/ml water. Brain homogenate (25 μl) and plasma sample (25 μl) that was thawed to RT and gently mixed were pipetted to eppendorf tube with lid and 75 μl ISTD added, mixed on vortex and centrifuged for 5 min at […]. A volume of 25 μl milli-Q water and 75 μl brain or plasma samples were added into a 200 μl PE vial and mixed on vortex and 10 μl and injected on LC-MS/MS. All animal work was approved by GUACUC.

[3] = target: T1, LCK (Homo sapiens, UniProt P06239); test: KINOMEscan competition binding, LCK; details: 10 µM compound; for remaining binding at 10 µM: lower = stronger binding, read-out: LCK %Ctrl @ 10000nM (POC)
T1 construct: DNA label for qPCR read-out (T7 phage fusion or DNA tag); purchased Eurofins DiscoverX Corporation; host or cells: T7 phage in E. coli (BL21-derived) or HEK-293
Protocol: The KINOMEscan screening platform (Eurofins DiscoverX Corporation) was performed using active site-directed competition binding assay to quantitatively measure interactions between BK40143 and BK40197 and more than 450 human kinases and disease relevant mutant variants. […] Screening “hits” are identified by measuring the amount of kinase captured in test (BK40143 and BK40197) versus control samples by using a quantitative and ultra-sensitive qRT-PCR method that detects the associated DNA label. BK40143 and BK40197 were screened at 10 µM concentration, and results for primary screen binding interactions were reported as “% Ctrl” (POC), where lower numbers indicate stronger hits and calculated as follows: [test compound signal−positive control signal/negative control signal−positive control signal]×100
negative control = DMSO (100% Ctrl)
positive control = control compound (0% Ctrl)
Based on screening data from of profiled compounds, a proportional relationship between primary screening results and corresponding compound/target affinities can be described as binding constants (Kd values) for the indicated ranges of POC values with tighter binding (higher affinity) interactions associated with lower POC values and weaker binding (lower affinity) associated with higher POC values. Briefly, kinase-tagged T7 phage strains were grown in parallel in 24-well blocks in an E. coli host derived from the BL21 strain. E. coli were grown to log-phase and infected with T7 phage from a frozen stock (multiplicity of infection = 0.4) and incubated with shaking at 32°C until lysis (90–150 min). The lysates were centrifuged (6,000g) and filtered (0.2 μm) to remove cell debris. The remaining kinases were produced in HEK-293 cells and subsequently tagged with DNA for qRT-PCR detection. Streptavidin-coated magnetic beads were treated with biotinylated small molecule ligands for 30 min at RT to generate affinity resins for kinase assays. The liganded beads were blocked with excess biotin and washed with blocking buffer (1% BSA, 0.05% Tween 20, 1 mM DTT; SeaBlock [Pierce]) to remove unbound ligand and to reduce non-specific phage binding. Binding reactions were assembled by combining kinases, liganded affinity beads, and test compounds in 1x binding buffer (20% 0.17x PBS, 0.05% Tween 20, 6 mM DTT; SeaBlock). Test compounds were prepared as 100x stocks in 100% DMSO and directly diluted into the assay. All reactions were performed in polypropylene 384-well plates in a final volume of 0.02 ml. The assay plates were incubated at RT with shaking for 1 h and the affinity beads were washed with wash buffer (1x PBS, 0.05% Tween 20). […] The kinase concentration in the eluates was measured by qRT-PCR.

[4] = Solubility in DMSO; format: physicochemical
[5] = ref Fowler et al, 2020; cited from earlier work
[6] = test system: A53T mice; test: Novel object recognition, A53T mice; format: in vivo, mouse; details: 5 mg/kg
Protocol: Novel object recognition was carried out using a 50 × 50 cm arena with clear walls covered by brown construction paper. Mice were habituated to the room for 30 min each day, before being allowed to freely explore the arena for 5 min two times, for 3 d. On the 4th d, two identical objects were placed in the arena in opposite adjacent corners, 10 cm from the corner of the arena. Mice were placed along the wall opposite from the objects and allowed to freely explore for 10 min. Approach behavior (extending nose toward the object) toward both objects was recorded manually using handheld stop watches and compared with ensure there was no preference for either neutral object. For the probe trial, one object was removed and replaced with a novel object, and mice were again allowed to freely explore for 10 min, with approach time towards the novel and familiar objects recorded. Trials in which the mice explored for less than 1 s were excluded. Discrimination index was calculated by dividing time spent exploring the novel object by total time exploring both objects and was compared for treated versus control animals.

[7] = test system: mice; test: Rotarod (source data sheets only, mouse line not given); format: in vivo; details: for Rotarod trial 1 / Rotarod trial 2: Day 1; for Rotarod trial 1 / Rotarod trial 2 / Rotarod trial 3 / Rotarod trial 4 / Rotarod trial 5 / Rotarod trial 6 / Rotarod D1 AVG / Rotarod D2 AVG / Rotarod D3 AVG / Rotarod Total AVG: individual mice, listed as 143; for Rotarod trial 3 / Rotarod trial 4: Day 2; for Rotarod trial 5 / Rotarod trial 6: Day 3

T1 sequence (P06239 whole entry, the tested form may be a part): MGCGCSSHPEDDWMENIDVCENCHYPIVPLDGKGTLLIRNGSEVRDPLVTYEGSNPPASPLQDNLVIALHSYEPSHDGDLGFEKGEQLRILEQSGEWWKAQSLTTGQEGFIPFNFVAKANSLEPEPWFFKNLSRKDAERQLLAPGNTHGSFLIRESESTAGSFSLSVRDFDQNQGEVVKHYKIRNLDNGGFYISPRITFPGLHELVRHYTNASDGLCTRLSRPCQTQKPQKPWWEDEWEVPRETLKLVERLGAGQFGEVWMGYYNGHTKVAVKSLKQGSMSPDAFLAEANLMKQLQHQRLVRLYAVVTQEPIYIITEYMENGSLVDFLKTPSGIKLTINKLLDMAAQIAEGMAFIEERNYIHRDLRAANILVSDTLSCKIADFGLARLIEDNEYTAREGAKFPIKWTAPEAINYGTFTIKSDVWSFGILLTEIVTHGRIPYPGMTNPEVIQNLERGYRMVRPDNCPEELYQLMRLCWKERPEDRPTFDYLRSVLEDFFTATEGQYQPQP

Cc1cccc(-c2cc3nccc(N4CCOCC4)c3s2)c1 [BK40197]
elevated plus maze: time in the open arms [1]: spent significantly greater time in the open arms of the elevated plus maze
Kp ([2]; 20 mg/kg IP): 0.251
Kp ([2]; 45 mg/kg IP): 0.201
Tmax ([2]; brain, 20 mg/kg single IP, read-out: Brain Tmax): 2 h
Tmax ([2]; brain, 45 mg/kg single IP, read-out: Brain Tmax): 2 h
AUC ([2]; serum, 20 mg/kg single IP): 928 ng·h/mL
Cmax ([2]; serum, 20 mg/kg single IP): 543 ± 82.3 ng/g
Tmax ([2]; serum, 20 mg/kg single IP, read-out: Serum Tmax): 1 h
AUC ([2]; serum, 45 mg/kg single IP): 1940 ng·h/mL
Cmax ([2]; serum, 45 mg/kg single IP): 1100 ± 165 ng/g
Tmax ([2]; serum, 45 mg/kg single IP, read-out: Serum Tmax): 1 h
brain penetrance ([2]; single IP dose, C57BL/6 mice): brain penetrant
inhibition at 10 µM [3]: 9%
remaining binding at 10 µM [3]: 91%
solubility in DMSO [4]: insolubility

Cc1cccc(-c2cc3nccc(Nc4ccccc4)c3s2)c1 [BK40143]
brain penetrance [5]: brain penetrant
novel object recognition [6]: significant improvements on novel object recognition
inhibition at 10 µM [3]: 92.9%
remaining binding at 10 µM [3]: 7.1%
Rotarod D1 AVG, group mean ([7]; 2.5mg/kg): 20.1429 s
Rotarod D2 AVG, group mean ([7]; 2.5mg/kg): 81.5714 s
Rotarod D3 AVG, group mean ([7]; 2.5mg/kg): 111.786 s
Rotarod Total AVG, group mean ([7]; 2.5mg/kg): 71.1667 s
Rotarod trial 1 ([7]; 2.5mg/kg): 2 s and 8 s and 4 s and 23 s and 9 s and 22 s
Rotarod trial 2 ([7]; 2.5mg/kg): 5 s and 11 s and 17 s and 22 s and 130 s and 10 s
Rotarod trial 3 ([7]; 2.5mg/kg): 13 s and 135 s and 4 s and 46 s and 129 s and 117 s
Rotarod trial 4 ([7]; 2.5mg/kg): 29 s and 169 s and 6 s and 101 s and 155 s and 230 s and 4 s
Rotarod trial 5 ([7]; 2.5mg/kg): 15 s and 204 s and 111 s and 60 s and 154 s and 195 s and 10 s
Rotarod trial 6 ([7]; 2.5mg/kg): 60 s and 172 s and 53 s and 88 s and 157 s and 272 s and 14 s
Rotarod D1 AVG ([7]; 2.5mg/kg): 3.5 s and 9.5 s and 10.5 s and 12 s and 76.5 s and 13 s and 16 s
Rotarod D2 AVG ([7]; 2.5mg/kg): 21 s and 152 s and 5 s and 73.5 s and 142 s and 117 s and 60.5 s
Rotarod D3 AVG ([7]; 2.5mg/kg): 37.5 s and 188 s and 82 s and 74 s and 155.5 s and 233.5 s and 12 s
Rotarod Total AVG ([7]; 2.5mg/kg): 20.6667 s and 116.5 s and 32.5 s and 53.1667 s and 124.667 s and 121.167 s and 29.5 s
Rotarod D1 AVG, group mean ([7]; 5.0mg/kg): 27.2 s
Rotarod D3 AVG, group mean ([7]; 5.0mg/kg): 90.7 s
Rotarod trial 1 ([7]; 5.0mg/kg): 54 s and 21 s and 19 s and 2 s and 14 s and 5 s and 29 s and 3 s and 1 s
Rotarod trial 2 ([7]; 5.0mg/kg): 96 s and 41 s and 147 s and 28 s and 9 s and 38 s and 8 s and 10 s and 16 s and 1 s
Rotarod trial 3 ([7]; 5.0mg/kg): 47 s and 74 s and 152 s and 42 s and 51 s and 45 s and 18 s and 6 s and 5 s and 3 s
Rotarod trial 4 ([7]; 5.0mg/kg): 46 s and 47 s and 178 s and 87 s and 35 s and 44 s and 66 s and 4 s and 32 s and 5 s
Rotarod trial 5 ([7]; 5.0mg/kg): 80 s and 109 s and 179 s and 107 s and 92 s and 172 s and 35 s and 61 s and 62 s and 2 s
Rotarod trial 6 ([7]; 5.0mg/kg): 110 s and 99 s and 139 s and 103 s and 133 s and 151 s and 84 s and 20 s and 69 s and 7 s
Rotarod D1 AVG ([7]; 5.0mg/kg): 75 s and 31 s and 83 s and 15 s and 11.5 s and 20 s and 6.5 s and 19.5 s and 9.5 s and 1 s
Rotarod D2 AVG ([7]; 5.0mg/kg): 46.5 s and 60.5 s and 165 s and 64.5 s and 43 s and 44.5 s and 42 s and 5 s and 18.5 s and 4 s
Rotarod D3 AVG ([7]; 5.0mg/kg): 95 s and 104 s and 159 s and 105 s and 112.5 s and 161.5 s and 59.5 s and 40.5 s and 65.5 s and 4.5 s
Rotarod Total AVG ([7]; 5.0mg/kg): 72.1667 s and 65.1667 s and 135.667 s and 61.5 s and 55.6667 s and 75.3333 s and 36 s and 21.6667 s and 31.1667 s and 3.167 s
